Laboratory results: the supplement of paper PMC9386025

Experiments:
Assay in all cases: drug sensitivity score (DSS) (DSS (dimensionless)); higher = more sensitive (stronger drug response)
[1] = test system: Kuramochi
Summary of the method: (§1)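 Drugs were pre-plated in 384-well plates at five concentrations covering a 10,000-fold range, and 1 000 – 1 500 cells per well were added from patient-derived cultures or from ovarian cancer cell lines whose shRNA had been induced with 100 ng/ml doxycycline for three days or longer. Incubation lasted three days at 37 °C under 5.0 % CO2. A PHERAstar FS then recorded CellTiter-Glo luminescence as the readout of viability. A drug sensitivity score, calculated as described before, summarised the dose-response curve of every drug.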

[2] = test system: FIMM-PDC4 (patient-derived ovarian cancer cells); conditions: genetic perturbation: none (patient-derived cell culture)
Summary of the method: as §1

[3] = test system: FIMM-PDC1 (patient-derived ovarian cancer cells); conditions: genetic perturbation: none (patient-derived cell culture)
Summary of the method: as §1

[4] = test system: FIMM-PDC7 (patient-derived ovarian cancer cells); conditions: genetic perturbation: none (patient-derived cell culture)
Summary of the method: as §1

[5] = test system: JHOS2
Summary of the method: as §1

[6] = test system: FIMM-PDC3 (patient-derived ovarian cancer cells); conditions: genetic perturbation: none (patient-derived cell culture)
Summary of the method: as §1

[7] = test system: FIMM-PDC5 (patient-derived ovarian cancer cells); conditions: genetic perturbation: none (patient-derived cell culture)
Summary of the method: as §1

[8] = test system: OVSAHO
Summary of the method: as §1

[9] = test system: FIMM-PDC6 (patient-derived ovarian cancer cells); conditions: genetic perturbation: none (patient-derived cell culture)
Summary of the method: as §1

[10] = genetic perturbation: DOX-induced PTK7 shRNA knockdown
[11] = genetic perturbation: DOX-induced control shRNA

Row | SMILES | drug sensitivity score [1, 10] | drug sensitivity score [1, 11] | drug sensitivity score [2] | drug sensitivity score [3] | drug sensitivity score [4] | drug sensitivity score [5, 10] | drug sensitivity score [5, 11] | drug sensitivity score [6] | drug sensitivity score [7] | drug sensitivity score [8, 10] | drug sensitivity score [8, 11] | drug sensitivity score [9]
1 | CC(C)(C)C[C@@H]1N[C@@H](C(=O)N[C@H]2CC[C@H](O)CC2)[C@H](c2cccc(Cl)c2F)[C@]12C(=O)Nc1cc(Cl)ccc12 | 1.9 | 0.8 | 8.1 | < 0 | 5 | 4.8 | 0.1 | 4.9 | 15.8 | 2.7 | 1.2 | 10.5
2 | CC(C)(C)c1cc(NC(=O)Nc2ccc(Oc3ccnc4[nH]c(=O)cnc34)cc2F)n(-c2ccccc2)n1 | 2.15 | 9.4 | 0.7 | 3.9 | 0.3 | 1.8 | 8.3 | 4.2 | 0.3 | 3.9 | 9.1 | 0.4
3 | CC(C)Oc1ccc(C(=O)N[C@H](CNC(=O)CN(C)C)Cc2ccc(-c3cn4cccc([C@H](C)O)c4n3)cc2)cc1Cl | 15.1 | 2.5 | 6 | 12.7 | 4.2 | 8.9 | 6.4 | 11.9 | 14.9 | 7.7 | 9.5 | 0.2
4 | CCc1cncnc1N1CCN(Cc2nc3ccc(C(F)(F)F)cc3[nH]2)CC1 | 2.3 | 0.8 | 3.2 | 1.9 | 4.3 | 0.1 | 0.7 | 0.5 | 2.9 | 1.2 | 2 | 8.9
5 | CCn1c(-c2nonc2N)nc2c(C#CC(C)(C)O)ncc(OC[C@H]3CCCNC3)c21 | 0.9 | < 0 | 7.2 | 7.3 | 11.5 | < 0 | 0.5 | 1.5 | 8.3 | < 0 | 4.8 | 5.7
6 | CCn1cc(-c2ccnc3[nH]c(-c4cccc(CN(C)C)c4)cc23)c(-c2ccc(NC(=O)N(C)C)cc2)n1 | < 0 | < 0 | 2.9 | 2.25 | 0.2 | < 0 | 0.4 | 2.8 | 4.1 | 0.4 | < 0 | < 0
7 | CN(C)CC#Cc1ccc(OCCCc2sc(N3CCc4cccc(C(=O)Nc5nc6ccccc6s5)c4C3)nc2C(=O)O)c(F)c1 | 4.55 | 9.9 | 14.1 | 18.7 | 19.3 | 6.3 | 0.5 | 16.8 | 31.9 | 23.3 | 2.6 | 30.1
8 | CN1CCN(C2CCC(n3cc(-c4ccc(Oc5ccccc5)cc4)c4c(N)ncnc43)CC2)CC1 (stereo unspecified) | 16.8 | 12 | 18.6 | 5.85 | 7 | 9.9 | 11.5 | 14.6 | 18.4 | 18.9 | 10.8 | 14.7
9 | CNC(=O)c1ccccc1Nc1nc(Nc2ccc3c(c2OC)CCC[C@H](N2CCN(CCO)CC2)C3)ncc1Cl | 7.7 | 6.3 | 9.6 | 7.5 | 5.5 | 7.1 | 5.6 | 6.9 | 10.2 | 12.4 | 7.5 | 5.3
10 | CNc1ncc2cc(-c3cc(NC(=O)NCCC(C)(C)C)c(F)cc3C)c(C)nc2n1 | 11.6 | 6.2 | 11.9 | 1.85 | 6.2 | 7.6 | 13.6 | 7.4 | 18.2 | 12.2 | 9.2 | 14.3
11 | CO[C@@H](C)Cn1c(=O)n(C)c2cnc3ccc(-c4cncc(C(C)(C)O)c4)cc3c21 | 8.4 | 8.4 | 12 | 6.85 | 11.6 | 7.2 | 8.5 | 6.9 | 16.8 | 11.3 | 8 | 12.6
12 | COc1ccc2[nH]cc(/C=C3\C(=O)Nc4ccc(NC(=O)CCN5CCCCC5)cc43)c2c1 | 7.75 | 5.2 | 9.7 | 6.15 | 6.7 | 7.8 | 8 | 11 | 14.3 | 7.4 | 7.5 | 5.8
13 | C[C@@H](Oc1cc(-n2cnc3ccc(CN4CCN(C)CC4)cc32)sc1C(N)=O)c1ccccc1C(F)(F)F | 12.6 | 6.3 | 12.1 | 9.8 | 8.5 | 25 | 7.5 | 12 | 24.1 | 16.7 | 8.4 | 1.6
14 | C[C@@]1(C(=O)Nc2ccc(F)nc2)CCCN1c1nc(Nc2cc(C3CC3)n[nH]2)c2cccn2n1 | 5.25 | 5 | 11.5 | 13.8 | 16.6 | 6 | 4.4 | 10.8 | 14.1 | 7.2 | 8.9 | 4.1
15 | Cc1c(-c2ccc(N3CCc4cccc(C(=O)Nc5nc6ccccc6s5)c4C3)nc2C(=O)O)cnn1CC12CC3CC(CC(C3)C1)C2 | 1.25 | 3.3 | 1.2 | 7.4 | 7.6 | 2.4 | < 0 | 9.6 | 13.9 | 19.8 | < 0 | 24.8
16 | Cc1nc(Nc2n[nH]c3c2CN(C(=O)N[C@H](CN(C)C)c2ccccc2)C3(C)C)c2sccc2n1 | 12.3 | 8.6 | 16.6 | 9.6 | 11.8 | 16.6 | 13.6 | 14.3 | 20.8 | 11.1 | 15.3 | 14.8
17 | Cc1nn(C)c(COc2ccc(N3CCN(S(=O)(=O)N(C)C)CC3)cc2)c1-c1cccc2c(CCCOc3cccc4ccccc34)c(C(=O)O)n(CCN3CCOCC3)c12 | 6.25 | 5.8 | 7.2 | 5.7 | 6.5 | 7.3 | 3.4 | 8.8 | 4.9 | 10.1 | 4.9 | 4.6

Row | SMILES | drug sensitivity score [1, 10] | drug sensitivity score [1, 11] | drug sensitivity score [2] | drug sensitivity score [3] | drug sensitivity score [4] | drug sensitivity score [5, 10] | drug sensitivity score [5, 11] | drug sensitivity score [6] | drug sensitivity score [7] | drug sensitivity score [8, 10] | drug sensitivity score [8, 11] | drug sensitivity score [9]
18 | Cn1cc(C2=Nc3cc(NC(=O)C(N)C4CCCCC4)cc4c3C2=CNNC4=O)cn1 (stereo unspecified) | 7.35 | 3.5 | 6.2 | 12.8 | 6.8 | 4.7 | 4.9 | 16.4 | 10.7 | 9.2 | 5.1 | 6.4
19 | O=C(NOC[C@H](O)CO)c1ccc(F)c(F)c1Nc1ccc(I)cc1F | 5.9 | 4 | 9.4 | < 0 | 3.1 | 0.6 | 6.2 | 3 | 7.8 | 4.6 | 4.2 | 3.9
20 | O=C(Nc1ccc2[nH]nc(-c3ccncc3)c2c1)[C@@H]1CCN(CC(=O)N2CCN(c3ccc(-c4ncccn4)cc3)CC2)C1 | 12.6 | 8 | 18.4 | 0.35 | 10.2 | 4.1 | 12.8 | 7.4 | 22 | 13.4 | 8.5 | 16.7
21 | COc1ccc(C[C@H](NC(=O)[C@H](C)NC(=O)CN2CCOCC2)C(=O)N[C@@H](Cc2ccccc2)C(=O)C2(C)CO2)cc1 (stereo in doubt) [ONX-0914] | 14.6 | 16.4 | 17.6 | 19.9 | 20.3 | 18.3 | 15.5 | 22.7 | 17.4 | 17.6 | 12.3 | 23.8
22 | CC/C(=C(\c1ccc(O)cc1)c1ccc(OCCN(C)C)cc1)c1ccccc1 [4-hydroxytamoxifen] | 5.1 | 2.4 | 6 | 3.6 | 4.6 | 8.4 | 2.3 | 6 | 6 | 4.9 | 3.2 | 3
23 | Nc1ncnc2c1nc(N)n2[C@@H]1O[C@H](CO)[C@@H](O)[C@H]1O [8-amino-adenosine] | 23.3 | 20.1 | 22.7 | 17.4 | 17.8 | 23.4 | 19.8 | 19.1 | 27.9 | 26.2 | 21.1 | 24.8
24 | Nc1ncnc2c1nc(Cl)n2[C@@H]1O[C@H](CO)[C@@H](O)[C@H]1O [8-chloro-adenosine] | 5.75 | 12.1 | 5.9 | 7.45 | 13.8 | 12.9 | 9.4 | 6 | 20.2 | 18.4 | 6.9 | 10.4
25 | COc1ccc(S(=O)(=O)Nc2cccnc2Nc2ccc(O)cc2)cc1 [ABT-751] | 7.95 | 3.6 | 9.6 | 8.8 | 6.8 | 10.2 | 6.3 | 9.7 | 11.8 | 7 | 5.4 | 5.1
26 | CC(C)[C@H](C(=O)Nc1ccc(C(=O)NO)cc1)c1ccccc1 [AR-42] | 12.8 | 6.6 | 5.8 | 9.25 | 9.8 | 9.1 | 8.5 | 10 | 10.9 | 12.4 | 9 | 10.5
27 | Cc1sc2c(c1C)C(c1ccc(Cl)cc1)=N[C@@H](CC(=O)Nc1ccc(OCCOCCOCCOCCNc3cccc4c3C(=O)N(C3CCC(=O)NC3=O)C4=O)cc1)c1nnc(C)n1-2 (stereo partly specified) [ARV-825] | 8.3 | 10.5 | 8.2 | 0.6 | 8.7 | 10.2 | 8.1 | 3.2 | 8.9 | 9.7 | 9.1 | 6.7
28 | COc1cc(N2CCC(N3CCN(C)CC3)CC2)ccc1Nc1ncnc(Nc2ccccc2S(=O)(=O)C(C)C)n1 [ASP3026] | 4.5 | 3.2 | 8.1 | 3.85 | 3.4 | 5.7 | 5.1 | 5.5 | 7.7 | 5.3 | 4.5 | 5.3
29 | O=C(NC1CCNCC1)c1n[nH]cc1NC(=O)c1c(Cl)cccc1Cl [AT7519] | 15 | 7.7 | 16.3 | 14.1 | 18.2 | 14 | 14 | 13.6 | 20.5 | 17.2 | 14.5 | 20.5
30 | O=C(Nc1c[nH]nc1-c1nc2ccc(CN3CCOCC3)cc2[nH]1)NC1CC1 [AT9283] | 5.7 | 3.2 | 8.2 | 2.9 | < 0 | 7.3 | 4.8 | 4.4 | 6.1 | 6.9 | 3.1 | 3.1
31 | CCN(CC)CCCC(C)Nc1ccnc2cc(Cl)ccc12 (stereo unspecified) [Chloroquine] | – | – | 9.1 | 7.6 | 7.7 | 8.4 | 7.8 | 8.8 | 9 | 8.6 | 5.8 | 5.8
32 | Nc1ccn([C@@H]2O[C@H](CO)[C@@H](O)[C@@H]2O)c(=O)n1 [Cytarabine] | – | – | 3.6 | < 0 | 5.7 | 13.4 | 7.2 | 2.1 | 10.5 | 4.1 | < 0 | 6
33 | Cc1ccc(C(=O)Nc2ccc(CN3CCN(C)CC3)c(C(F)(F)F)c2)cc1C#Cc1cnc2cccnn12 [Ponatinib] | 7.8 | 8 | – | – | – | 4.7 | 6.9 | – | – | 10.2 | 8.3 | –
34 | CC[C@]1(O)C[C@H]2CN(CCc3c([nH]c4ccccc34)[C@@](C(=O)OC)(c3cc4c(cc3OC)N(C=O)[C@H]3[C@@](O)(C(=O)OC)[C@H](OC(C)=O)[C@]5(CC)C=CCN6CC[C@]43[C@@H]65)C2)C1 [Vincristine] | 4.75 | 2.7 | 8.9 | 14.9 | 5 | – | – | 13.8 | 6.4 | 3.4 | 9.1 | 0.5
